{"source": "patent US20090232849A1", "about": "(priority 2005, published 2009)", "test_system": "TLT tumor", "design": "species or system mice", "conditions": "mouse, in vivo", "note": "Several values for one entry are separate records, joined by “and”; a condition that tells them apart may be missing. Identical values can stand only once. Entries after “also recorded” stand apart in the source; their conditions may differ.", "data": [{"smiles": "O=P1(N(CCCl)CCCl)NCCCO1", "note": "(centres unmarked) [cyclophosphamide]", "values": [{"measurement": "regrowth delay to double tumour diameter", "result": "7.73 ± 0.38 days and 7.7 ± 0.4 days"}, {"measurement": "effect of cyclophosphamide alone on regrowth delay", "setting": "50 mg/kg", "result": "No difference in regrowth delay; also recorded: just below the efficacy threshold"}]}]}
